Measured values published in patent publication US5389644A, “1,4-dihydropyridine compounds” (priority 1992, dated 1995).

How the values were obtained:
[1] = biological target: T1, calcium channel (Sus scrofa, UniProt A0A8W4FNC0); assay: Affinity for the calcium channel labelled with [^3 ] PN 200110, aorta smooth muscle microsome preparations; assay type: binding; conditions: pig aorta smooth muscle microsomes; means of three independent experiments
T1 construct: pig aorta smooth muscle microsome preparations; from tissue; host or cells: pig aorta smooth muscle microsomes
T1 sequence (A0A8W4FNC0 1-2067): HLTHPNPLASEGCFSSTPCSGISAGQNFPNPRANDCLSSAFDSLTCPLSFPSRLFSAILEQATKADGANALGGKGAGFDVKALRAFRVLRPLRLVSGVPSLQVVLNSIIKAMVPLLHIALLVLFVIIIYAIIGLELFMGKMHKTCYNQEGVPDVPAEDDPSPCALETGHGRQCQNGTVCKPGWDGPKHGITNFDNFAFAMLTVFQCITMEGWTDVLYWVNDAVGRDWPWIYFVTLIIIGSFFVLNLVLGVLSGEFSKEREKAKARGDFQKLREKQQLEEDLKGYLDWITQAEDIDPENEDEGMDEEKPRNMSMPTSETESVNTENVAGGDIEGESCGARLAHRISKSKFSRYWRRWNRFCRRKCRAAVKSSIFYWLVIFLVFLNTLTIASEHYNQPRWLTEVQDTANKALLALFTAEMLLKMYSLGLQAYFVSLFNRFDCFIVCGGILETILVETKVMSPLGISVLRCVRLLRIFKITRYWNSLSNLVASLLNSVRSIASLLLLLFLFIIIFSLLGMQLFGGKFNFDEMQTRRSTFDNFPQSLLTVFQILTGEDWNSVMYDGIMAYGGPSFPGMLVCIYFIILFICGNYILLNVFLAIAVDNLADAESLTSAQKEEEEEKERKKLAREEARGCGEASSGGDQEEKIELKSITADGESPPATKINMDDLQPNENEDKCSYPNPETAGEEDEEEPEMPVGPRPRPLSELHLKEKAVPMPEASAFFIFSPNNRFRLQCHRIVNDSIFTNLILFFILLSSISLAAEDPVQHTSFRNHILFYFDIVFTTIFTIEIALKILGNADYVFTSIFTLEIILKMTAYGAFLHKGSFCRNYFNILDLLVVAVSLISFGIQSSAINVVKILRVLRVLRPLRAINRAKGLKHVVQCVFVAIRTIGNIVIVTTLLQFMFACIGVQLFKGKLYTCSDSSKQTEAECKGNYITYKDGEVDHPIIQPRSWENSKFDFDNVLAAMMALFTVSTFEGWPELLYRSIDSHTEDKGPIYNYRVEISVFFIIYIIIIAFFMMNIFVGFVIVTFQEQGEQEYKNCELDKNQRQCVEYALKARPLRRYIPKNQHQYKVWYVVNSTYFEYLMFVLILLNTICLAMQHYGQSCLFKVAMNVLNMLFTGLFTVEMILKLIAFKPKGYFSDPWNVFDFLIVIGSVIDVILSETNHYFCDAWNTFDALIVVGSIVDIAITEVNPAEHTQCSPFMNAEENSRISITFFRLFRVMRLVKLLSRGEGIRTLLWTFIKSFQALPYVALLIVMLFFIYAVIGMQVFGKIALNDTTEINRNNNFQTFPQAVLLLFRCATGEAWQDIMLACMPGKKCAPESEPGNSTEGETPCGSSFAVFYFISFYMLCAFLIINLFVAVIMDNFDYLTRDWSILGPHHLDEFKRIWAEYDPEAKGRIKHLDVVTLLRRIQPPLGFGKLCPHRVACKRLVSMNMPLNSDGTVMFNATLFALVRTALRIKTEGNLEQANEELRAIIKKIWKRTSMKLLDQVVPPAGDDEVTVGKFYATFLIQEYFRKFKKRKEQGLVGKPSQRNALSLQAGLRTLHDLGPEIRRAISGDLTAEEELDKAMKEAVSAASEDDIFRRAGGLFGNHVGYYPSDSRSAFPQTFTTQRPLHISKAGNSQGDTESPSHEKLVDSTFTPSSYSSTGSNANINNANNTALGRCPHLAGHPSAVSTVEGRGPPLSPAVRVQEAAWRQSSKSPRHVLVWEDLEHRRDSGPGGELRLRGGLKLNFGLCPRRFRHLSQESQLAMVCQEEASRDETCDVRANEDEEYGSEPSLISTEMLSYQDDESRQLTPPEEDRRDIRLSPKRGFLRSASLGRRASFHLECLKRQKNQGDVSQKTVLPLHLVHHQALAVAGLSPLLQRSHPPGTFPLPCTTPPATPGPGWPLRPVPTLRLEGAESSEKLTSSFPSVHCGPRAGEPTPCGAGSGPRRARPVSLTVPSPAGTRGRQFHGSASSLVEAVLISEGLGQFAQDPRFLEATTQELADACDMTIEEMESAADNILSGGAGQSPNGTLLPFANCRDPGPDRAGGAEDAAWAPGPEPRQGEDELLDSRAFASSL
From the text: The results are expressed as IC50 (M) and represent means of three independent experiments.

[2] = tested on: DC-3F/AD; assay: Cytotoxicity: reversal of resistance to actinomycin D (reversion factor), line DC-3F/AD; assay type: cell-based, Chinese hamster
Procedure: (§1) The parameter measured is the cytotoxicity of the antitumour drug, quantified in the absence and in the presence of the reversing compound. Two resistant cell lines were used: 1 Chinese hamster lung line, DC-3F/AD, the resistance of which was induced by actinomycin D. […] The compounds tested for their capacity to reverse the resistance are added at the same time as the cytotoxic agent. The cells are then incubated for 4 days.

[3] = tested on: KB-A1; assay: Cytotoxicity: reversal of resistance to adriamycin (reversion factor), line KB-A1; assay type: cell-based, Human
Procedure: as §1, with “compound.” for “compound. Two resistant cell lines were used: 1 Chinese hamster lung line, DC-3F/AD, the resistance of which was induced by actinomycin D.”

[4] = tested on: KB-A1; assay: Flow cytometry: intracellular accumulation of ADR, line KB-A1; assay type: cell-based, Human; conditions: ADR 50 μM, 5 hours
Procedure: Also measured was the effect of the compounds on the intracellular concentration of adriamycin. […] By measuring that fluorescence, it is thus possible to obtain a relative measurement of the intracellular concentration of ADR. […] The cells (5×10^5 per ml) were exposed simultaneously to ADR at a fixed concentration (50 μM) and to the tested compounds at various concentrations. After 5 hours' incubation, the intracellular accumulation of ADR was evaluated by FCM. […] The results were presented in the form of linear histograms of the intracellular ADR fluorescence. Expression of the results: for each of the histograms the mean fluorescence per channel (MEAN) was determined by the computer of the apparatus. For all experiments: a negative control (cells without ADR) fixed the autofluorescence threshold. a positive control (cells with ADR) determined the MEAN value=MN1. the "test" tubes (cells with ADR and with compound) were used to determine, for each of the compounds and at each of the concentrations, the MEAN values=MN2. The results are expressed in the form of variations from the mean fluorescence obtained for each of the "test" tubes (MN2) in relation to the mean fluorescence obtained with the positive control (MN1): VAR-MEAN=MN2-MN1. The measured parameter is thus the increase in ADR fluorescence in the presence of the tested compounds.

[5] = tested on: Plasmodium falciparum; conditions: literature (Krogstad; Martin; Deloron); cited from earlier work
[6] = tested on: P 388/VCR; assay: In vivo increase in antitumour activity of vincristine, resistant line P 388/VCR; design: species or system murine leukaemia in female B6D2F1 mice
From the text: This study was completed by an in vivo study, using a murine leukaemia resistant to vincristine (P 388/VCR) and using the compounds of the present invention in association with vincristine.
(§2) The sensitive parent line P 388 (murine leukaemia) and the sub-line resistant to vincristine, P 388/VCR, were supplied by NCI (Frederick, USA). The tumour cells (10^6 cells) were inoculated on day 0 into the indraperitoneal cavity of female B6D2F1 mice (Iffa Credo, France) weighing from 18 to 20 g (groups of 8 to 10 animals).
Every day for 4 days, starting from day 1, the animals received:
an administration of 25 to 150 mg/kg by i.p., p.o. or i.v. route of the compound of the present invention to be tested, as mentioned in the table 4a; then
(§3) 30 to 60 minutes later, an administration by the i.p. route of 0.25 mg/kg of vincristine (used as a reference antitumour agent).
(§4) The antitumour activity is expressed as follows: [formula]
(§5) The values are mean values obtained in independent experiments (# sem when n is greater than or equal to 3).

[7] = tested on: P 388; assay: In vivo increase in antitumour activity of vincristine, sensitive line P388; design: species or system murine leukaemia in female B6D2F1 mice; conditions: compound 150 mg/kg p.o.
Procedure: as §2
Every day for 4 days, starting from day 1, the animals received: […]
as §3, §4, §5
Using the sensitive line (P388) the tested compounds of the invention increase considerably the sensitivity of the cells to vincristine.

[8] = with VCR […] i.p., compound 50 mg/kg i.p.
[9] = with VCR […] i.p., compound 150 mg/kg p.o.

Row | SMILES | IC50 [1] [µM] | reversion factor (RF) ([2]; compound 1 μM) | reversion factor (RF) ([2]; compound 5 μM) | reversion factor (RF) ([3]; compound 1 μM) | reversion factor (RF) ([3]; compound 5 μM) | increase in the ADR fluorescence (VAR-MEAN) ([4]; compound 1 μM) | increase in the ADR fluorescence (VAR-MEAN) ([4]; compound 5 μM) | increase in the ADR fluorescence (VAR-MEAN) ([4]; compound […]) | sensitivity of a chloroquine-resistant line to chloroquine [5] | T/C ([6]; VCR 0, compound 50 mg/kg i.p.) [%] | T/C ([6]; VCR 0, compound 150 mg/kg p.o.) [%] | T/C [6, 8] [%] | T/C [6, 9] [%] | Survivors on day 60 ([7]; VCR 0) | T/C ([7]; VCR 0) [%] | Survivors on day 60 ([7]; with VCR […] i.p.) | T/C ([7]; with VCR […] i.p.) [%]
1 | CCOC(=O)C1=C(COCCOCCNCCc2ccccn2)NC(C)=C(C(=O)OC)C1c1cccc(Cl)c1Cl (single isomer, unassigned) [Example 20, d-2-{2-[[2-(2-(N-pyrid-2-yl)ethylamino)ethoxy]ethoxy]methyl}-4-(2,3-dichlorophenyl)-3-ethoxycarbonyl-5-methoxycarbonyl-6-methyl-1,4-dihydropyridine] | 2.1 | – | – | – | – | – | – | – | – | – | – | – | – | – | – | – | –
2 | CCOC(=O)C1=C(COCCN)NC(C)=C(C(=O)OC)C1c1ccccc1Cl (stereo not shown) [AMLODIPINE, amlodipine, reference compound] | – | 1.0 | 2.6 | 1.5 | 5.9 | 0.0 | 4.7 | 2.1 | restores the sensitivity of a line resistant to chloroquine | – | – | – | – | – | – | – | –
3 | CCOC(=O)C1=C(COCCOCCNCc2ccc([N+](=O)[O-])cc2)NC(C)=C(C(=O)OC)C1c1cccc(Cl)c1Cl (stereo not drawn) [Example 1, d-2-{[2-(2-(N-p-nitrobenzylamino)ethoxy)ethoxy]methyl}-4-(2,3-dichlorophenyl)-3-ethoxycarbonyl-5-methoxycarbonyl-6-methyl-1,4-dihydropyridine] | 1.6 | 21.0 | 2,613.2 | 32.1 | 640.5 | 5.5 | 45.7 | 26.1 | – | 107 | 99 | 171 | 185 | 0/8 | 99 | 4/8 | > 532
4 | CCOC(=O)C1=C(COCCOCCNCc2ccc3ccccc3c2)NC(C)=C(C(=O)OC)C1c1cccc(Cl)c1Cl (stereo not drawn) [Example 12, d-2-{[2-(2-(N-naphth-2-ylmethylamino)ethoxy)ethoxy]methyl}-4-(2,3-dichlorophenyl)-3-ethoxycarbonyl-5-methoxycarbonyl-6-methyl-1,4-dihydropyridine] | 1.3 | 1.1 | 1,320.1 | 1.2 | 125.4 | – | – | – | – | – | – | – | – | – | – | – | –
5 | CCOC(=O)C1=C(COCCOCCNCc2ccsc2)NC(C)=C(C(=O)OC)C1c1cccc(Cl)c1Cl (stereo not drawn) [Example 14, d-2-{[2-(2-(N-thien-3-ylmethylamino)ethoxy)ethoxy]methyl}-4-(2,3-dichlorophenyl)-3-ethoxycarbonyl-5-methoxycarbonyl-6-methyl-1,4-dihydropyridine] | 1 | 8.2 | 4,463.2 | 22.7 | 169.4 | 2.4 | 20.5 | 8.2 | – | 99 | 103 | 164 | 200 | – | 95 | 4/8 | > 587
6 | CCOC(=O)C1=C(COCCOCCNCc2ccccn2)NC(C)=C(C(=O)OC)C1c1cccc(Cl)c1Cl (stereo not drawn) [Example 16, d-2-{[2-(2-(N-pyrid-2-ylmethylamino)ethoxy)ethoxy]methyl}-4-(2,3-dichlorophenyl)-3-ethoxycarbonyl-5-methoxycarbonyl-6-methyl-1,4-dihydropyridine] | 1.6 | 3.4 | 8,248.4 | 13.9 | 122.4 | – | – | – | – | – | – | – | – | – | – | – | –
7 | CCOC(=O)C1=C(COCCOCCNCc2cccnc2)NC(C)=C(C(=O)OC)C1c1cccc(Cl)c1Cl (stereo not drawn) [Example 17, d-2-{[2-(2-(N-pyrid-3-ylmethylamino)ethoxy)ethoxy]methyl}-4-(2,3-dichlorophenyl)-3-ethoxycarbonyl-5-methoxycarbonyl-6-methyl-1,4-dihydropyridine] | 1.4 | 3.7 | 8,600.0 | 10.5 | 120.7 | – | – | – | – | – | – | – | – | – | – | – | –
8 | CCOC(=O)C1=C(COCCOCCNCc2ccnc3ccccc23)NC(C)=C(C(=O)OC)C1c1cccc(Cl)c1Cl (stereo not drawn) [Example 18, d-2-{[2-(2-(N-quinol-4-ylmethylamino)ethoxy)ethoxy]methyl}-4-(2,3-dichlorophenyl)-3-ethoxycarbonyl-5-methoxycarbonyl-6-methyl-1,4-dihydropyridine] | 1.1 | 3.3 | 5,018.4 | 4.3 | 348.2 | – | – | – | – | – | – | – | – | – | – | – | –
9 | CCOC(=O)C1=C(COCCOCCNCc2nccc3ccccc23)NC(C)=C(C(=O)OC)C1c1cccc(Cl)c1Cl (stereo not drawn) [Example 19, d-2-{[2-(2-(N-isoquinol-1-ylmethylamino)ethoxy)ethoxy]methyl}-4-(2,3-dichlorophenyl)-3-ethoxycarbonyl-5-methoxycarbonyl-6-methyl-1,4-dihydropyridine] | 3.2 | 1.5 | 1,701.7 | 3.6 | 140.5 | 9.4 | 34.7 | 15.7 | – | – | – | – | – | – | – | – | –
10 | CCOC(=O)C1=C(COCCOCCNCc2c[nH]c3ccccc23)NC(C)=C(C(=O)OC)C1c1cccc(Cl)c1Cl (stereo not drawn) [Example 22, d-2-{[2-(2-[N-(indol-3-yl)methylamino]ethoxy)ethoxy]methyl}-4-(2,3-dichlorophenyl)-3-ethoxycarbonyl-5-methoxycarbonyl-6-methyl-1,4-dihydropyridine] | 3.3 | – | – | – | – | – | – | – | – | – | – | – | – | – | – | – | –
11 | CCOC(=O)C1=C(COCCOCCNCc2cnc3ccccc3c2)NC(C)=C(C(=O)OC)C1c1cccc(Cl)c1Cl (stereo not drawn) [Example 23, d-2-{[2-(2-[N-(quinol-3-yl)methylamino]ethoxy)ethoxy]methyl}-4-(2,3-dichlorophenyl)-3-ethoxycarbonyl-5-methoxycarbonyl-6-methyl-1,4-dihydropyridine] | 2 | 10.2 | 2,304.0 | 19.6 | 1,035.8 | – | – | – | – | – | – | – | – | – | – | – | –
12 | COc1ccc(CCN(C)CCCC(C#N)(c2ccc(OC)c(OC)c2)C(C)C)cc1OC (stereo not shown) [verapamil, reference compound] | – | 1.0 | 3.1 | 4.6 | 26.0 | 3.7 | 12.2 | 8.6 | restores the sensitivity of a line resistant to chloroquine | – | – | – | – | – | – | – | –
